Holding throughout (assay type): cell-based
The subject of one assay is human CD3+ T cells. The assay is described as follows: T cell assay (IL2 in supernatant, anti-CD3/anti-CD28 stimulation). The settings on record: for EC50: T-cell, 4 hours anti-CD3/anti-CD28, read-out: IL-2 EC50.
Assay [1] has as its system pSLP76. The assay is described as follows: Flow pSLP76.
Assay [2] relates to pSLP76. Description: WB pSLP76.

The term EC50 denotes the midpoint of the concentration-response curve.

Counter-ions that a name gives are not always drawn.

Protocol for human CD3+ T cells: Cryo-preserved human CD3+ T cells are recovered in warm T cell media overnight. […] T cells are then left in a humidified incubator at 37° C. for 1 hour. […] Anti-CD28 antibody in T cell media is also added to the cells by Bravo liquid handler at 5 ug/mL or 1 μg/mL in a donor dependent manner. T cells are then incubated in a humidified incubator at 37° C. for 4 hours. […] IL2 is detected using a IL2 MultiCyt® QBeads® kit on an iQue Screener flow cytometer (Sartorius). Briefly, capture beads are diluted by 50× in the supplied capture bead diluent. […] Using a Bravo liquid handler, 10 ul cell culture supernatant is transferred to the v-bottom plate with diluted capture beads. The plate is then sealed in foil and incubate at room temperature on a plate shaker set to 900 rpm for 1 hour. At the end of incubation, 10 μL per well of the supplied detection reagent is added to the wells using a ThermoFisher multichannel pipette. The plate is then sealed in foil and incubate again at room temperature on a plate shaker set to 900 rpm for 2 hours before detection by iQue Screener. iQue Screener flow cytometer uses pre-configured analysis template supplied with the IL2 MultiCyt® QBeads® kit to detect IL2 in each sample wells.

Regarding `CNc1nc(Nc2ccc(CN3C[C@H]4C[C@@H]3CO4)cc2F)c(C(N)=O)nc1-c1cncc2c1ncn2C` [Example 146, 3-[2-Fluoro-4-[[(1R,4R)-2-oxa-5-azabicyclo[2.2.1]heptan-5-yl]methyl]anilino]-5-(methylamino)-6-(3-methylimidazo[4,5-c]pyridin-7-yl)pyrazine-2-carboxamide], the “Max IL-2 conc” value with human CD3+ T cells is 0.37 µM. Further, the values for the EC50 in the assay with human CD3+ T cells and in the assay with pSLP76 [1] were 23 nM and 65 nM, respectively.

As for `CNc1nc(Nc2ccc(CN3CC4(COC4)C3)cc2Cl)c(C(N)=O)nc1-c1cncc2c1ncn2C` [Example 148, 3-[2-Chloro-4-(2-oxa-6-azaspiro[3.3]heptan-6-ylmethyl)anilino]-5-(methylamino)-6-(3-methylimidazo[4,5-c]pyridin-7-yl)pyrazine-2-carboxamide formate salt], in the assay with human CD3+ T cells, the “Max IL-2 conc” value was determined as 3.33 µM. Moreover, the EC50 with human CD3+ T cells was 325 nM; in the assay with pSLP76 [1], 1080 nM.

For `CNc1nc(Nc2cn(C3CCN(C)CC3)nc2C)c(C(N)=O)nc1-c1cccc2c1ncn2C` [Example 206, 5-(Methylamino)-6-(1-methylbenzimidazol-4-yl)-3-[[3-methyl-1-(1-methyl-4-piperidyl)pyrazol-4-yl]amino]pyrazine-2-carboxamide formate salt], in the assay on human CD3+ T cells, the “Max IL-2 conc” value is 1.11 µM. In addition, the EC50 in the assay on human CD3+ T cells is 91 nM; with pSLP76 [1], 440 nM; in the assay with pSLP76 [2] it was 320 nM.

As to `CNc1nc(Nc2cn(C(C)(C)C#N)nc2C)c(C(N)=O)nc1-c1cncc2c1ncn2C` [Example 211, 3-[[1-(1-Cyano-1-methyl-ethyl)-3-methyl-pyrazol-4-yl]amino]-5-(methylamino)-6-(3-methylimidazo[4,5-c]pyridin-7-yl)pyrazine-2-carboxamide], in the assay with human CD3+ T cells, the “Max IL-2 conc” value was determined as 3.33 µM and the EC50 amounted to 276 nM. Also, the EC50 in the assay with pSLP76 [2] was determined as 340 nM.

With `Cc1nn(CC(F)(F)F)cc1Nc1nc(C2CC2)c(-c2cncc3c2ncn3C)nc1C(N)=O` [Example 213, 5-Cyclopropyl-6-(3-methylimidazo[4,5-c]pyridin-7-yl)-3-[[3-methyl-1-(2,2,2-trifluoroethyl)pyrazol-4-yl]amino]pyrazine-2-carboxamide], the EC50 in the assay with human CD3+ T cells was 53 nM; in the assay on pSLP76 [1], 50 nM.

On to `Cc1nn(C2COC2)cc1Nc1nc(C2CC2)c(-c2cncc3c2ncn3C)nc1C(N)=O` [Example 224, 5-Cyclopropyl-6-(3-methylimidazo[4,5-c]pyridin-7-yl)-3-[[3-methyl-1-(oxetan-3-yl)pyrazol-4-yl]amino]pyrazine-2-carboxamide], for which, in the assay with human CD3+ T cells, the “Max IL-2 conc” value was 3.33 µM and the EC50 was 120 nM.
